This note sets out measurements from patent US8236963B2, “Tricyclic spiro derivatives as CRTH2 modulators” (Merck Serono SA, priority 2005, dated 2012).

The target of this assay is T1, CRTH2 (Homo sapiens, UniProt Q9Y5Y4).
T1 sequence (Q9Y5Y4 1-395): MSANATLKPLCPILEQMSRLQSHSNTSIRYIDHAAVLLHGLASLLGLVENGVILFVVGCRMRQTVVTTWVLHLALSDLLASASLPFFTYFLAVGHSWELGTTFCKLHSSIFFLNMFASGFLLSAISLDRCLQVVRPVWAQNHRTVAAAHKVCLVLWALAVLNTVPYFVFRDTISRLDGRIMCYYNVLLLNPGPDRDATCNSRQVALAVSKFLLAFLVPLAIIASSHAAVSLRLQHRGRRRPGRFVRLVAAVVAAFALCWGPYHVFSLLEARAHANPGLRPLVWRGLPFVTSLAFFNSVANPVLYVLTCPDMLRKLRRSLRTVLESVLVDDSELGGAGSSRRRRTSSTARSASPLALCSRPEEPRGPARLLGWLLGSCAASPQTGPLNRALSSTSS
As to the kind of experiment: Determination of Ki (radioligand binding assay, equilibrium competition against [3H]PGD2). Details: expressed in transfected cells; host or cells: HEK293 (EBNA) cells, membrane preparation. Conditions: average of at least three independent dose response experiments. The protocol: The inhibitory activity can be investigated by a radioligand binding assay (Sawyer et al., Br. J. Pharmocol 2002, 137, 1163-72). The radioligand binding assay was performed at room temperature in binding buffer (10 mM HEPES/KOH pH […], with protease inhibitor cocktail tablets), containing 1.5 nM [^3H]PGD2 (Amersham, 156 Cie/mmol), and 10 μg of hCRTH2 HEK293 (EBNA) cell membrane protein in a final volume of 100 μl in 96 well plates (Corning, USA). Non-specific binding was determined in the presence of 1 μM PGD2 (Cayman, USA). Competing spiro-indolinones were diluted in dimethylsulphoxide so that the total volume of dimethylsulfoxide was kept constant at 1% dimethylsulphoxide (Me2SO) Serial dilutions of 100 μM and […] were prepared. 10 μl each of these spiro-indolinone stock solutions were added. Incubation (60 min at room temperature) was terminated by rapid filtration through 96 wells hydrophobic GF/C Unifilter plates (Whatman, USA). Filters were washed twice with 250 μl of Tris-HCl pH 7.4, 10 mM MnCl2, and residual radioligand bound to the filters was mixed to 100 μl of liquid scintillation cocktail (Optiphase Supermix, Perkin Elmer, USA) and binding activity was determined by counting residual radioligand using a 1450 Micro-beta scintillation counter (Wallac, UK). The following representative compounds were tested. All inhibited the binding of PGD2 to CRTH2 by more than 70%. • (1′-benzyl-5-chloro-2,2′,5′-trioxospiro[indole-3,3′-pyrrolidin]-1(2H)-yl)acetic acid • (1′-benzyl-5-fluoro-2,2′,5′-trioxospiro[indole-3,3′-pyrrolidin]-1(2H)-yl)acetic acid • 4-(1′-allyl-5-chloro-2,2′,5′-trioxospiro[indole-3,3′-pyrrolidin]-1(2H)-yl)butanoic acid • [5-chloro-1′-(2-methoxyethyl)-2,2′,5′-trioxospiro[indole-3,3′-pyrrolidin]-1(2H)-yl]acetic acid • 4-(1′-benzyl-5-chloro-2,2′,5′-trioxospiro[indole-3,3′-pyrrolidin]-1(2H)-yl)butanoic acid • (1′-benzyl-5-methoxy-2,2′,5′-trioxospiro[indole-3,3′-pyrrolidin]-1(2H)-yl)acetic acid • [5-fluoro-1′-[(2-methoxyethoxy)methyl]-2,2′,5′-trioxospiro[indole-3,3′-pyrrolidin]-1(2H)-yl]acetic acid • 4-(1′-allyl-5-fluoro-2,2′,5′-trioxospiro[indole-3,3′-pyrrolidin]-1(2H)-yl)butanoic acid • 4-(1′-benzyl-5-fluoro-2,2′,5′-trioxospiro[indole-3,3′-pyrrolidin]-1(2H)-yl)butanoic acid
Ki values were determined by equilibrium competition binding experiments against [^3H]PGD2. Ki values were calculated from the formula below and represent the average of at least three independent dose response experiments. The Ki values give the ligand concentrations necessary to inhibit 50% of the binding of [^3H]PGD2 to CRTH2. Ki=IC50/(1+[Concentration of Ligand]/Kd)]
All experiments were performed in 96 well plates, in a final volume of 100 μl according to the above described filtration assay. The concentration of membranes and 3 [H]PGD2, as well as the positive and negative controls were identical to the conditions described above.
On to `Cc1nc(CN2C(=O)CC3(C2=O)C(=O)N(CC(=O)O)c2ccc(Cl)cc23)cs1` (stereo not drawn) [Compound 1, [5-chloro-1′-[(2-methyl-1,3-thiazol-4-yl)methyl]-2,2′,5′-trioxospiro[indole-3,3′-pyrrolidin]-1(2H)-yl]acetic acid], for which the affinity corresponds to a Ki of 39 nM.

The molecule `O=C(O)CN1C(=O)C2(CC(=O)N(Cc3ccc4ccccc4n3)C2=O)c2cc(Cl)ccc21` (stereo not drawn) [Compound 3, [5-chloro-2,2′,5′-trioxo-1′-(quinolin-2-ylmethyl)spiro[indole-3,3′-pyrrolidin]-1(2H)-yl]acetic acid] yielded a Ki of 93 nM.

With `N#Cc1ccc(CN2C(=O)CC3(C2=O)C(=O)N(CC(=O)O)c2ccc(Cl)cc23)cc1` (stereo not drawn) [Compound 4, [5-chloro-1′-(4-cyanobenzyl)-2,2′,5′-trioxospiro[indole-3,3′-pyrrolidin]-1(2H)-yl]acetic acid], the Ki was 89 nM.

As for `O=C(O)CN1C(=O)C2(CC(=O)N(Cc3cccc(Cl)c3)C2=O)c2cc(Cl)ccc21` (stereo not drawn) [Compound 5, [5-chloro-1′-(3-chlorobenzyl)-2,2′,5′-trioxospiro[indole-3,3′-pyrrolidin]-1(2H)-yl]acetic acid], the Ki was found to be 73 nM.

Molecule `O=C(O)CN1C(=O)C2(CC(=O)N(Cc3ccc(Cl)c(Cl)c3)C2=O)c2cc(Cl)ccc21` (stereo not drawn) [Compound 6, [5-chloro-1′-(3,4-dichlorobenzyl)-2,2′,5′-trioxospiro[indole-3,3′-pyrrolidin]-1(2H)-yl]acetic acid] showed a Ki of 100 nM.

The molecule `O=C(O)CN1C(=O)C2(CC(=O)N(Cc3cccc(Oc4ccccc4)c3)C2=O)c2cc(Cl)ccc21` (stereo not drawn) [Compound 10, [5-chloro-2,2′,5′-trioxo-1′-(3-phenoxybenzyl)spiro[indole-3,3′-pyrrolidin]-1(2H)-yl]acetic acid] yielded a Ki of 148 nM.

In the case of `O=C(O)CN1C(=O)C2(CC(=O)N(CC3COc4ccccc4O3)C2=O)c2cc(Cl)ccc21` (stereo not drawn) [Compound 16, [5-chloro-1′-(2,3-dihydro-1,4-benzodioxin-2-ylmethyl)-2,2′,5′-trioxospiro[indole-3,3′-pyrrolidin]-1(2H)-yl]acetic acid], the Ki is 213 nM. The molecule `O=C(O)CN1C(=O)C2(CC(=O)N(Cc3ccccn3)C2=O)c2cc(Cl)ccc21` (stereo not drawn) [Compound 17, [5-chloro-2,2′,5′-trioxo-1′-(pyridin-2-ylmethyl)spiro[indole-3,3′-pyrrolidin]-1(2H)-yl]acetic acid] had a Ki of 170 nM. `O=C(O)CN1C(=O)C2(CC(=O)N(Cc3ccc(C(F)(F)F)o3)C2=O)c2cc(Cl)ccc21` (stereo not drawn) [Compound 18, [5-chloro-2,2′,5′-trioxo-1′-{[5-(trifluoromethyl)-2-furyl]methyl}spiro[indole-3,3′-pyrrolidin]-1(2H)-yl]acetic acid] had a Ki of 270 nM.

In turn, `O=C(O)CN1C(=O)C2(CC(=O)N(CCc3ccccc3)C2=O)c2cc(Cl)ccc21` (stereo not drawn) [Compound 23, [5-chloro-2,2′,5′-trioxo-1′-(2-phenylethyl)spiro[indole-3,3′-pyrrolidin]-1(2H)-yl]acetic acid] had a Ki of 267 nM.

`O=C(O)CN1C(=O)C2(CC(=O)N(Cc3cn4ccccc4n3)C2=O)c2cc(Cl)ccc21` (stereo not drawn) [Compound 24, [5-chloro-1′-(imidazo[1,2-a]pyridin-2-ylmethyl)-2,2′,5′-trioxospiro[indole-3,3′-pyrrolidin]-1(2H)-yl]acetic acid]: the affinity corresponds to a Ki of 705 nM. Next, `O=C(O)CN1C(=O)C2(CC(=O)N(C/C=C/c3ccccc3)C2=O)c2cc(Cl)ccc21` (stereo not drawn) [Compound 25, [5-chloro-2,2′,5′-trioxo-1′-[(2E)-3-phenylprop-2-en-1-yl]spiro[indole-3,3′-pyrrolidin]-1(2H)-yl]acetic acid]: 768 nM; `CCOCCN1C(=O)CC2(C1=O)C(=O)N(CC(=O)O)c1ccc(Cl)cc12` (stereo not drawn) [Compound 28, [5-chloro-1′-(2-ethoxyethyl)-2,2′,5′-trioxospiro[indole-3,3′-pyrrolidin]-1(2H)-yl]acetic acid]: 1030 nM; `O=C(O)CN1C(=O)C2(CC(=O)N(CCOCc3ccccc3)C2=O)c2cc(Cl)ccc21` (stereo not drawn) [Compound 29, [1′-[2-(benzyloxy)ethyl]-5-chloro-2,2′,5′-trioxospiro[indole-3,3′-pyrrolidin]-1(2H)-yl]acetic acid]: 1130 nM. `Cn1ccnc1CN1C(=O)CC2(C1=O)C(=O)N(CC(=O)O)c1ccc(Cl)cc12` (stereo not drawn) [Compound 32, [5-chloro-1′-[(1-methyl-1H-imidazol-2-yl)methyl]-2,2′,5′-trioxospiro[indole-3,3′-pyrrolidin]-1(2H)-yl]acetic acid] returned a Ki of 1820 nM. For the molecule `O=C(O)CCCN1C(=O)C2(CC(=O)N(Cc3ccc(C(F)(F)F)cc3)C2=O)c2cc(Cl)ccc21` (stereo not drawn) [Compound 35, 4-[5-chloro-2,2′,5′-trioxo-1′-[4-(trifluoromethyl)benzyl]spiro[indole-3,3′-pyrrolidin]-1(2H)-yl]butanoic acid], the Ki is 681 nM. As to `COc1ccccc1CN1C(=O)CC2(C1=O)C(=O)N(CC(=O)O)c1ccc(Cl)cc12` (stereo not drawn) [Compound 54, [5-chloro-1′-(2-methoxybenzyl)-2,2′,5′-trioxospiro[indole-3,3′-pyrrolidin]-1(2H)-yl]acetic acid], the affinity corresponds to a Ki of 153 nM. The molecule `COc1c(C)cnc(CN2C(=O)CC3(C2=O)C(=O)N(CC(=O)O)c2ccc(Cl)cc23)c1C` (stereo not drawn) [Compound 75, [5-chloro-1′-[(4-methoxy-3,5-dimethylpyridin-2-yl)methyl]-2,2′,5′-trioxospiro[indole-3,3′-pyrrolidin]-1(2H)-yl]acetic acid] showed a Ki of 510 nM. Consider `O=C(O)CN1C(=O)C2(CC(=O)N(Cc3cnc(Cl)cc3Cl)C2=O)c2cc(Cl)ccc21` (stereo not drawn) [Compound 76, [5-chloro-1′-[(4,6-dichloropyridin-3-yl)methyl]-2,2′,5′-trioxospiro[indole-3,3′-pyrrolidin]-1(2H)-yl]acetic acid], for which affinity was put at a Ki of 12 nM.

The molecule `O=C(O)CN1C(=O)C2(CC(=O)N(Cc3cccs3)C2=O)c2cc(Cl)ccc21` (stereo not drawn) [Compound 77, [5-chloro-2,2′,5′-trioxo-1′-(2-thienylmethyl)spiro[indole-3,3′-pyrrolidin]-1(2H)-yl]acetic acid] came in with a Ki of 75 nM.

In turn, `COc1ccnc(CN2C(=O)CC3(C2=O)C(=O)N(CC(=O)O)c2ccc(Cl)cc23)c1OC` (stereo not drawn) [Compound 78, [5-chloro-1′-[(3,4-dimethoxypyridin-2-yl)methyl]-2,2′,5′-trioxospiro[indole-3,3′-pyrrolidin]-1(2H)-yl]acetic acid] came in with a Ki of 101 nM. On to `O=C(O)CN1C(=O)C2(CC(=O)N(Cc3csc(-c4cccc(Cl)c4)n3)C2=O)c2cc(Cl)ccc21` (stereo not drawn) [Compound 103, [5-chloro-1′-{[2-(3-chlorophenyl)-1,3-thiazol-4-yl]methyl}-2,2′,5′-trioxospiro[indole-3,3′-pyrrolidin]-1(2H)-yl]acetic acid], for which affinity was put at a Ki of 6 nM.

`O=C(O)CN1C(=O)C2(CC(=O)N(Cc3ccccc3F)C2=O)c2cc(Cl)ccc21` (stereo not drawn) [Compound 104, [5-chloro-1′-(2-fluorobenzyl)-2,2′,5′-trioxospiro[indole-3,3′-pyrrolidin]-1(2H)-yl]acetic acid] came in with a Ki of 24 nM. Molecule `Cc1onc(-c2ccccc2)c1CN1C(=O)NC2(C1=O)C(=O)N(CC(=O)O)c1ccc(Cl)cc12` (stereo not drawn) [Compound 106, [5′-chloro-1-[(5-methyl-3-phenylisoxazol-4-yl)methyl]-2,2′,5-trioxospiro[imidazolidine-4,3′-indol]-1′(2′H)-yl]acetic acid] showed an inhibitory constant (Ki) of 1120 nM.

The Ki is the equilibrium dissociation constant of an inhibitor or competing ligand from its target.
